Test [1] relates to NALM-6 (B-ALL) cells. As to the kind of experiment: Cell viability assay (WST-1). In kind it is cell-based, human. The following applies: NALM-6, 24 h exposure, TP53 wild-type. As for the experimental part:
(§1) B-/T-ALL cell lines were incubated with increasing concentrations of drug (5–1000 nM) for 24 and 48 h.
(§2) In order to assess the cell viability after treatment with PF-00477736 (Pfizer), ALL cell lines were seeded in 96-well plates at 50,000 cell/100 μl/well with increasing concentrations of drug (0.005–2 μM) for 24 and 48 h and incubated at 37 °C. Cell viability was assessed by adding WST-1 reagent (Roche Applied Science, Basel, Switzerland) to the culture medium at 1:10 dilution. Cells were incubated at 37 °C, and the optical density was measured by microplate ELISA reader at λ = 450 after 3 h. The amount of the formazan formed directly correlates to the number of metabolically active cells. All viability experiments were performed in triplicates and repeated in least two separated experiments. In ex-vivo primary leukemia cells, the effects on cell viability were assessed by counting viable and non-viable cell numbers by the trypan blue dye exclusion method. Cells were seeded in six-well plates at 500,000 cell/1 ml with increasing concentrations of drug (0.1, 0.5, and 1 μM) for 24 h and incubated at 37 °C. Cellular viability was calculated as a percentage of the viable cells compared to the untreated controls (DMSO 0.1 %).
In general terms: Formazan colour is commonly taken as a measure of viable cells.

Test [2] has as its system RPMI-8402 (T-ALL) cells. In words: Cell viability assay (WST-1). Type of test: cell-based, human. The following applies: RPMI-8402, 24 h exposure, p53 mutated. As to the method:
as §1, §2

Test [3] deals with primary ALL blast cells. In words: Ex-vivo viability of primary leukemia cells (trypan blue dye exclusion). In kind it is cell-based, human. As to the method: The efficacy of PF-00477736 was confirmed in primary blast cells from 14 newly diagnosed cases including ten BCR-ABL1-positive (71 %) cases and four BCR-ABL1-negative ALL cases (29 %). Leukemic cells were incubated with increasing concentrations of drug (0.1, 0.5, and 1 μM) for 24 h. […]
as §2, with “The amount of the formazan formed directly correlates to the number of metabolically active cells. All viability experiments were performed in triplicates and repeated in least two separated experiments.” left out, “Cells were seeded in six-well plates at 500,000 cell/1 ml with increasing concentrations of drug (0.1, 0.5, and 1 μM) for 24 h and incubated at 37 °C.” left out

For test [4], the system named is BV-173 cells. In words: γ-H2A.X immunofluorescence analysis. Type of test: cell-based, human.
Method: (§3) The so-called hyper-γ-H2A.X-positive cells loose the typical foci signal of γ-H2A.X and emit a much higher and diffuse signal of γ-H2A.X positivity.
(§4) NALM-6 and BV-173 cells were seeded to poly-D lysine-coated slides, fixed with 4 % PFA (paraformaldehyde), and stained at 37 °C with a mouse anti-H2A.X-Phosphorylated Alexa 647 conjugated antibody (BioLegend). Then, they were treated with DAPI (4.6 diamidino-2-phenylindole; Sigma Aldrich), and the slides were mounted with Mowiol (Calbiochem). Images were acquired with wide field fluorescence microscope Olympus BX61 fully motorized driven by Metamorph software, and the analysis was performed using the freeware ImageJ software.
Test [5] deals with Chk1 pathway (Chk1-Cdc25-Cdc2) in BV-173 and NALM-6 cells. In words: Western blot analysis of Chk1 pathway. Type of test: cell-based, human. An excerpt: In order to assess whether PF-00477736 efficiently targeted Chk1 pathway, we examined the changes in the downstream phosphorylation of the phosphatase Cdc25C and cyclin-dependent kinase, Cdc2. Moreover, Chk1 itself and γ-H2A.X, which is a marker of stalling replication forks and checkpoint abrogation-induced apoptosis, have been assessed. Functional analyses were initially performed on the most sensitive (BV-173) and the most resistant (NALM-6) B-ALL cell lines, as determined by the viability and apoptosis analyses. Specifically, BV-173 cells were treated with 0.05, 0.1, and 0.2 μM and NALM-6 with 0.1, 0.5, and 1 μM of PF-00477736 for 24 h (Fig. 3a). In the second analysis, BV-173 and NALM-6 cells were treated with the dose of PF-00477736 that goes near to the IC50 (0.1 μM for BV-173 and 1 μM for NALM-6) for 18, 24, 30, and 48 h (Fig. 3b). Thereafter, the same molecular targets have been assessed on all B- and T-ALL cell lines using the dose that goes near to the IC50 (Additional file 1: Figure S4). Active Chk1 phosphorylates Cdc25C at serine 216 throughout the interphase and upon G2 checkpoint activation. This leads to the nuclear export of Cdc25C and its subsequent cytoplasmic sequestration by 14-3-3 protein, which prevents the activation of the downstream target of Cdc25C, the cyclin B/Cdc2 kinase that is responsible for G2/M transition. […] Although the increment of the phosphorylated forms of Chk1 (Ser317 and Ser345) as a consequence of genomic damage amplification, the complete inhibition of Chk1 functionality was confirmed by the progressive reduction of the auto-phosphorylated form of Chk1 (Ser296) in an early time point analysis.
To gain insight into the molecular mechanisms responsible for cell death following treatment, functional analyses by Western blot were performed. Leukemia cell lines were plated in six-well plates at 500,000 cell/1 ml with increasing concentrations of drug for 24 h and incubated at 37 °C. After the treatment, the cells were collected and lysate using a specific buffer made of KH2PO4 0.1 M (pH 7.5), Igepal 1 % (NP-40), β-glicerofosfato 0.1 mM, and complete protease inhibitor cocktail 1× (Roche Diagnostics). […] Finally, all these antibodies were detected using the enhanced chemiluminescence kit ECL (GE) and the compact darkroom ChemiDoc-It (UVP).

The test system of test [6] is NALM-6 cells. To be noted: NALM-6 γ-H2A.X positive cells.
Method: as §3, §4

Several values for one entry are separate records, joined by “and”; a condition that tells them apart may be missing. Equal values may be shown once. Read-outs that look alike come from different tables or passages of the source.

`Cn1cc(-c2[nH]c3cc(NC(=O)[C@H](N)C4CCCCC4)cc4c3c2C=NNC4=O)cn1` [PF-00477736]: the IC50 in test [1] was 1420 nM; in test [2], 57.4 nM; in test [3] (primary ALL sample of one patient per table row (ID in c1), class of IC50 at 24 hours, read-out: Sensitivity) it was 500 to 1000 nM and 100 to 500 nM; in test [3] (primary blast cells, 21 % (3/14) of cases, 24 h, read-out: IC50 at 24 h, poor responders), greater than 1000 nM. The “fold change of mean value intensity of γ-H2A.X, treated vs untreated” value in test [4] (BV-173 γ-H2A.X positive cells) was “five-fold”; in test [6], 1.4 fold. Besides, in test [4] (treated cells, 1.8 % in the untreated controls), the “hyper-γ-H2A.X-positive cells among γ-H2A.X-positive cells” value is listed as roughly 6.5%. Besides, in test [5] (BV-173 0.05-0.2 μM, NALM-6 0.1-1 μM, 24 h), the “phosphorylated forms of Chk1 (Ser317 and Ser345)” value is given as “dose-dependently increased”. The γ-H2A.X level entry in test [5] (Western blot and immunofluorescence, 18, 24, 30, 48 h at dose near IC50) is “time-dependently increase of γ-H2A.X”. Also, the “auto-phosphorylated form of Chk1 (Ser296)” value in test [5] (after 3 h of treatment, BV-173 and NALM-6, vs untreated) was “drastically reduced”. Also, the “phosphorylated Cdc25c (Ser216) and Cdc2 (Tyr 15) levels” value in test [5] (dose- and time-dependent, BV-173 0.05-0.2 μM, NALM-6 0.1-1 μM) was “decreased levels of phosphorylated Cdc25c (Ser216) and Cdc2 (Tyr 15)”.

Source of the values: paper PMC4635624, “In vitro and in vivo single-agent efficacy of checkpoint kinase inhibition in acute lymphoblastic leukemia” (Journal of Hematology & Oncology, 2015).
